Results as given in US9521846B2, “Template-fixed peptidomimetics with antimicrobial activity” (priority 2006, dated 2016).
≈ marks a conversion by molar mass, not a printed value. Non-standard residues stand in square brackets, D forms with d. Residues, ends and D or L forms follow the SMILES beside them. Ala(cPr) = N[C@@H](CC1CC1)C(=O)O; Cit = NC(=O)NCCC[C@H](N)C(=O)O; Chg = N[C@H](C(=O)O)C1CCCCC1; dDab = NCC[C@@H](N)C(=O)O; Nle = CCCC[C@H](N)C(=O)O; Orn = NCCC[C@H](N)C(=O)O; Dab = NCC[C@H](N)C(=O)O; Aib = CC(C)(N)C(=O)O

Assays:
[1] = system: P. aeruginosa ATCC 27853; format: cell-based, Pseudomonas aeruginosa; conditions: ATCC 27853
Summary of the method: (§1)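 Antibacterial activity by modified NCCLS broth microdilution in Mueller-Hinton broth + 0.02% BSA. Inoculum was about 10^6 CFU/ml before 1:1 mixing with two-fold serial peptide dilutions.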

[2] = system: Pseudomonas aeruginosa IMP 1 Livermore 3140; format: cell-based; conditions: IMP 1 Livermore 3140
Summary of the method: as §1

[3] = system: Pseudomonas aeruginosa P1021903; format: cell-based; conditions: P1021903
Summary of the method: as §1

[4] = system: Pseudomonas aeruginosa P1021913; format: cell-based; conditions: P1021913
Summary of the method: as §1

[5] = system: Pseudomonas aeruginosa P8191900; format: cell-based; conditions: P8191900
Summary of the method: as §1

[6] = system: HELA cells (Acc57); assay: Cytotoxicity assay, MTT reduction (LC 50, GI 50); format: cell-based
Summary of the method: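 Read-out was MTT reduction (A595) after 48 h peptide exposure (12.5–50 μM, triplicates) of HeLa cells plated at 7.0×10^3/well and precultured 24 h. Growth % was normalised to a time-zero reading. Linear trend interpolation gave the concentration at −50% growth (LC50) and at 50% growth (GI50).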

[7] = system: human red blood cells (hRBC); assay: Hemolysis; format: cell-based; conditions: 100
[8] = system: P. aeruginosa

| SMILES | MIC P. aeruginosa ATCC 27853 [1] [µg/mL] | MIC P. aeruginosa IMP1 Livermore 3140 [2] [µg/mL] | MIC P. aeruginosa P1021903 [3] [µg/mL] | MIC P. aeruginosa P1021913 [4] [µg/mL] | MIC P. aeruginosa P8191900 [5] [µg/mL] | Cytotoxicity GI50 Hela cells [6] [µM] | Hemolysis at 100 μg/ml [7] [%] | Average MIC [8] [µg/mL] |
| --- | --- | --- | --- | --- | --- | --- | --- | --- |
| CC[C@H](C)[C@@H]1NC(=O)[C@H](Cc2c[nH]c3ccccc23)NC(=O)[C@H]([C@@H](C)O)NC(=O)[C@@H]2CCCN2C(=O)[C@H]2CCCN2C(=O)[C@H](CCN)NC(=O)[C@H](CC2CC2)NC(=O)[C@H](CCN)NC(=O)[C@H](CCN)NC(=O)[C@H](Cc2c[nH]c3ccccc23)NC(=O)[C@H](CCN)NC(=O)[C@H](CCN)NC(=O)[C@H](CCCCN)NC(=O)[C@H](CCN)NC1=O [Example 37] (cyclo(TWI[Dab]K[Dab][Dab]W[Dab][Dab][Ala(cPr)][Dab][dP]P)) | 0.06 (≈ 0.037 µM) | 1.17 (≈ 0.722 µM) | 0.31 (≈ 0.191 µM) | 0.37 (≈ 0.228 µM) | 0.18 (≈ 0.111 µM) | 50 | 0.5 | 0.42 |
| C[C@@H]1NC(=O)[C@H](CCN)NC(=O)[C@H](CCN)NC(=O)[C@H](Cc2c[nH]c3ccccc23)NC(=O)[C@H](CCN)NC(=O)[C@H](CCN)NC(=O)[C@H](CCCCN)NC(=O)[C@H](CCN)NC(=O)[C@H](C2CCCCC2)NC(=O)[C@H](Cc2c[nH]c3ccccc23)NC(=O)[C@H]([C@@H](C)O)NC(=O)[C@@H]2CCCN2C(=O)[C@H]2CCCN2C(=O)[C@H](CCN)NC1=O [Example 33] (cyclo(TW[Chg][Dab]K[Dab][Dab]W[Dab][Dab]A[Dab][dP]P)) | 0.05 (≈ 0.0311 µM) | 0.43 (≈ 0.268 µM) | 0.29 (≈ 0.18 µM) | 0.31 (≈ 0.193 µM) | 0.18 (≈ 0.112 µM) | 50 | 0.1 | 0.25 |
| CC[C@H](C)[C@@H]1NC(=O)[C@H](Cc2c[nH]c3ccccc23)NC(=O)[C@H]([C@@H](C)O)NC(=O)[C@@H]2CCCN2C(=O)[C@H]2CCCN2C(=O)[C@H](CCN)NC(=O)C(C)(C)NC(=O)[C@H](CCN)NC(=O)[C@H](CCN)NC(=O)[C@H](Cc2c[nH]c3ccccc23)NC(=O)[C@H](CCN)NC(=O)[C@H](CCN)NC(=O)[C@H](CCCCN)NC(=O)[C@H](CCN)NC1=O [Example 5] (cyclo(TWI[Dab]K[Dab][Dab]W[Dab][Dab][Aib][Dab][dP]P)) | 0.08 (≈ 0.0502 µM) | 0.75 (≈ 0.47 µM) | 0.21 (≈ 0.132 µM) | 0.21 (≈ 0.132 µM) | 0.30 (≈ 0.188 µM) | 50 | 0.6 | 0.31 |
| CC[C@H](C)[C@@H]1NC(=O)[C@H](Cc2c[nH]c3ccccc23)NC(=O)[C@H]([C@@H](C)O)NC(=O)[C@@H]2CCCN2C(=O)[C@H]2CCCN2C(=O)[C@H](CCN)NC(=O)[C@@H](C)NC(=O)[C@H](CCN)NC(=O)[C@H](CCN)NC(=O)[C@H](Cc2c[nH]c3ccccc23)NC(=O)[C@H](CCN)NC(=O)[C@H](CCN)NC(=O)[C@H](CCCCN)NC(=O)[C@H](CCN)NC1=O [Example 3] (cyclo(TWI[Dab]K[Dab][Dab]W[Dab][Dab][dA][Dab][dP]P)) | 0.09 (≈ 0.0569 µM) | 2.0 (≈ 1.27 µM) | 0.30 (≈ 0.19 µM) | 0.31 (≈ 0.196 µM) | 0.30 (≈ 0.19 µM) | 34 | 0.6 | 0.6 |
| CCCC[C@@H]1NC(=O)[C@H](CCN)NC(=O)[C@H](CCN)NC(=O)[C@H](Cc2c[nH]c3ccccc23)NC(=O)[C@H](CCN)NC(=O)[C@H](CCN)NC(=O)[C@H](CCCCN)NC(=O)[C@H](CCN)NC(=O)[C@H]([C@@H](C)CC)NC(=O)[C@H](Cc2c[nH]c3ccccc23)NC(=O)[C@H]([C@@H](C)O)NC(=O)[C@@H]2CCCN2C(=O)[C@H]2CCCN2C(=O)[C@H](CCN)NC1=O [Example 9] (cyclo(TWI[Dab]K[Dab][Dab]W[Dab][Dab][Nle][Dab][dP]P)) | 0.21 (≈ 0.129 µM) | >2 | 1.50 (≈ 0.924 µM) | 0.75 (≈ 0.462 µM) | 0.75 (≈ 0.462 µM) | 50 | 0.7 | >1 |
| CC[C@H](C)[C@@H]1NC(=O)[C@H](Cc2c[nH]c3ccccc23)NC(=O)[C@H]([C@@H](C)O)NC(=O)[C@@H]2CCCN2C(=O)[C@H]2CCCN2C(=O)[C@H](CCN)NC(=O)[C@@H](C(C)C)NC(=O)[C@H](CCN)NC(=O)[C@H](CCN)NC(=O)[C@H](Cc2c[nH]c3ccccc23)NC(=O)[C@H](CCN)NC(=O)[C@H](CCN)NC(=O)[C@H](CCCCN)NC(=O)[C@H](CCN)NC1=O [Example 4] (cyclo(TWI[Dab]K[Dab][Dab]W[Dab][Dab][dV][Dab][dP]P)) | 0.75 (≈ 0.466 µM) | >2.0 | 1.50 (≈ 0.932 µM) | 2.50 (≈ 1.55 µM) | 1.50 (≈ 0.932 µM) | 40 | 0.6 | >1 |
| CC[C@H](C)[C@@H]1NC(=O)[C@H](Cc2c[nH]c3ccccc23)NC(=O)[C@H](CCCNC(N)=O)NC(=O)[C@@H]2CCCN2C(=O)[C@H]2CCCN2C(=O)[C@H](CCN)NC(=O)[C@H](C)NC(=O)[C@H](CCN)NC(=O)[C@H](CCN)NC(=O)[C@H](Cc2c[nH]c3ccccc23)NC(=O)[C@H](CCN)NC(=O)[C@H](CCN)NC(=O)[C@H](CCCCN)NC(=O)[C@H](CCN)NC1=O [Example 18] (cyclo([Cit]WI[Dab]K[Dab][Dab]W[Dab][Dab]A[Dab][dP]P)) | 0.06 (≈ 0.0367 µM) | 0.30 (≈ 0.183 µM) | 0.10 (≈ 0.0611 µM) | 0.81 (≈ 0.495 µM) | 0.10 (≈ 0.0611 µM) | 50 | 0.4 | 0.28 |
| CC[C@H](C)[C@@H]1NC(=O)[C@H](Cc2c[nH]c3ccccc23)NC(=O)[C@H]([C@@H](C)O)NC(=O)[C@@H]2CCCN2C(=O)[C@H]2CCCN2C(=O)[C@H](CCN)NC(=O)[C@H](C)NC(=O)[C@H](CCN)NC(=O)[C@H](CCN)NC(=O)[C@H](Cc2c[nH]c3ccccc23)NC(=O)[C@H](CCN)NC(=O)[C@@H](CCN)NC(=O)[C@H](CCCN)NC(=O)[C@H](CCN)NC1=O [Example 48] (cyclo(TWI[Dab][Orn][dDab][Dab]W[Dab][Dab]A[Dab][dP]P)) | 0.02 (≈ 0.0128 µM) | 0.19 (≈ 0.121 µM) | 0.02 (≈ 0.0128 µM) | 0.13 (≈ 0.083 µM) | 0.03 (≈ 0.0191 µM) | 50 | 0.2 | 0.08 |
| CC[C@H](C)[C@@H]1NC(=O)[C@H](Cc2c[nH]c3ccccc23)NC(=O)[C@H]([C@@H](C)O)NC(=O)[C@@H]2CCCN2C(=O)[C@H]2CCCN2C(=O)[C@H](CCN)NC(=O)[C@H](C)NC(=O)[C@H](CCN)NC(=O)[C@H](CCCCN)NC(=O)[C@H](Cc2c[nH]c3ccccc23)NC(=O)[C@H](CCN)NC(=O)[C@H](CCN)NC(=O)[C@H](CCCCN)NC(=O)[C@H](CCN)NC1=O [Example 27] (cyclo(TWI[Dab]K[Dab][Dab]WK[Dab]A[Dab][dP]P)) | 0.09 (≈ 0.0559 µM) | 0.50 (≈ 0.311 µM) | 0.30 (≈ 0.186 µM) | 0.21 (≈ 0.131 µM) | 0.30 (≈ 0.186 µM) | 50 | 0.6 | 0.28 |
| CC[C@H](C)[C@@H]1NC(=O)[C@H](Cc2c[nH]c3ccccc23)NC(=O)[C@H]([C@@H](C)O)NC(=O)[C@@H]2CCCN2C(=O)[C@H]2CCCN2C(=O)[C@H](CCN)NC(=O)[C@H](C)NC(=O)[C@H](CCN)NC(=O)[C@H](CCN)NC(=O)[C@H](Cc2ccc(O)cc2)NC(=O)[C@H](CCN)NC(=O)[C@H](CCN)NC(=O)[C@H](CCCCN)NC(=O)[C@H](CCN)NC1=O [Example 20] (cyclo(TWI[Dab]K[Dab][Dab]Y[Dab][Dab]A[Dab][dP]P)) | 0.21 (≈ 0.135 µM) | 1.25 (≈ 0.802 µM) | 0.21 (≈ 0.135 µM) | 0.31 (≈ 0.199 µM) | 0.40 (≈ 0.257 µM) | 50 | 0.2 | 0.48 |
